These are literature values, as cited in patent US10537540B2, “Pharmaceutical composition for promoting nerve injury restoration and application thereof” (priority 2012, dated 2020).

Molecules are shown by their SMILES.

The test system of data set [1] is rat spinal cord injury model.
For data set [2] the following is noted: intravenous infusion of 5 g.

With `Cc1c(C)c2c(c(C)c1OP(=O)([O-])OC1=C(O)[C@@H]([C@@H](O)CO)OC1=O)CC[C@@](C)(CCC[C@H](C)CCC[C@H](C)CCCC(C)C)O2.[K+]` [EPC-K1], the “Lipid peroxidation and free radicals after spinal cord injury” value in data set [1] is “significantly block lipid peroxidation and remove free radicals”.

For the compound `Cc1ncc(CO)c(CO)c1O.Cl` [vitamin B6], the Urine induced result in data set [2] was “about 380 mL”.
